# From US10654895B2, “Polypeptide, DNA molecule encoding the polypeptide, vector, preparation method and use” (WUHAN MORE BIOTECHNOLOGY CO., LTD., priority 2013, dated 2020)
# Several values for one entry are separate records, joined by “and”; a condition that tells them apart may be missing. Equal entries are not always repeated. Where two headings read alike, the source gives them in different places. No end group written: not given here.
# Columns and labels:
# Clostridium tetani = format: cell-based
# Clostridium perfringens = format: cell-based
# Bacteroides fragilis = experiment: Bacteriostasis experiment on anaerobic bacterium, 96-well plate MIC; format: cell-based
# M. tuberculosis = experiment: MIC test by the third party; format: cell-based, Mycobacterium tuberculosis
# [1] = test system: Methicillin-resistant Staphylococcus aureus (MRSA)
# [2] = test system: methicillin-resistant coagulase-negative staphylococci (MRSCNS)
# [3] = test system: methicillin-sensitive coagulase-negative staphylococci (MSSCNS)
# [4] = test system: Streptococcus hemolyticus / S. pyogenes (β-hemolytic streptococcus); details: for Minimum inhibitory concentration MIC: test by the third party
# Neisseria meningitidis = details: N. meningitidis
# Neisseria gonorrhoeae = details: N. gonorrhoeae
# [5] = test system: Shigella dysentery (dysentery bacilli)
# Klebsiella pneumoniae = details: K. pneumoniae
# Serratia fonticola = details: S. fonticola
# [6] = test system: Corynebacterium diphtheriae; details: C. diphtheriae
# Corynebacterium acnes = details: C. acnes
# Acinetobacter baumannii = details: A. baumannii (clinically isolated strain, 2 strains in Table 3)
# Bordetella pertussis = details: B. pertussis
# Haemophilus influenza = details: H. influenzae
sequence,measurement,setting,value
"FIRIARLLRIF [Ctryamp, FIRIARLLRIF]",Minimum inhibitory concentration MIC,Clostridium tetani,25 mg/L
same,Minimum inhibitory concentration MIC,Clostridium perfringens,25 mg/L
same,Minimum inhibitory concentration MIC,Bacteroides fragilis,12.5 mg/L
same,Minimum inhibitory concentration MIC,M. tuberculosis,25 mg/L
same,Minimum inhibitory concentration MIC,"Escherichia coli; ATCC25922 (non-ESBLs-producing), test by the third party",4 mg/L
same,Minimum inhibitory concentration MIC,"Escherichia coli; ATCC35218 (ESBLs-producing), test by the third party",4 mg/L
same,Minimum inhibitory concentration MIC,Escherichia coli; E. coli ATCC25922 (standard strain),6.25 mg/L
same,Minimum inhibitory concentration MIC,"Escherichia coli; E. coli clinically isolated strain, 8 strains",6.25 to 12.5 mg/L
same,Minimum inhibitory concentration MIC,"Escherichia coli; ESBLs-producing E. coli, 10 strains, test by the third party",4 to 8 mg/L
same,Minimum inhibitory concentration MIC,"Escherichia coli; Escherichia coli, strain not specified (Table 8)",6.25 to 12.5 mg/L and 6.25 mg/L
same,inhibition rate,"Escherichia coli; at 6.25 μg/mL, Escherichia coli CCTCCAB94012",100%
same,Minimum inhibitory concentration MIC,"Escherichia coli; non-ESBLs-producing E. coli, 4 strains, test by the third party",4 to 8 mg/L
same,Minimum inhibitory concentration MIC,Escherichia coli; standard Escherichia coli (Table 2),12.5 mg/L
same,Minimum inhibitory concentration MIC,"Staphylococcus aureus; S. aureus ATCC 29213, test by the third party",8 mg/L
same,Minimum inhibitory concentration MIC,"Staphylococcus aureus; S. aureus clinically isolated strain, 17 strains",1.63 to 6.25 mg/L
same,Minimum inhibitory concentration MIC,Staphylococcus aureus; S. aureus standard strain ATCC25923,6.25 mg/L
same,inhibition rate,"Staphylococcus aureus; at 6.25 μg/mL, Staphylococcus aureus CCTCCAB94004",100%
same,Minimum inhibitory concentration MIC,Staphylococcus aureus; standard Staphylococcus aureus (Table 2),6.25 mg/L
same,Minimum inhibitory concentration MIC,"[1]; MRSA, 5 strains",3.13 to 12.5 mg/L
same,Minimum inhibitory concentration MIC,"[1]; MRSA, 11 strains, test by the third party",4 to 8 mg/L
same,Minimum inhibitory concentration MIC,[1]; Methicillin-resistant Staphylococcus aureus (Table 8),6.25 mg/L
same,Minimum inhibitory concentration MIC,"[2]; 11 strains, test by the third party",4 mg/L
same,Minimum inhibitory concentration,"[2]; stated jointly with MRSA, 4-8 = test results from the third party",3.13 to 12.5 mg/L and 4 to 8 mg/L
same,Minimum inhibitory concentration MIC,"[3]; MSSCNS, 5 strains, test by the third party",4 mg/L
same,MIC,[3]; methicillin-sensitive coagulase-negative staphylococci,3.13 to 12.5 mg/L
same,Minimum inhibitory concentration MIC,S. pneumoniae,3.13 mg/L
same,Minimum inhibitory concentration MIC,S. agalactiae,25 mg/L
same,Minimum inhibitory concentration MIC,"[4]; Erythromycin-resistant S. pyogenes, 11 strains",8 to 16 mg/L
same,Minimum inhibitory concentration MIC,"[4]; Erythromycin-sensitive S. pyogenes, 4 strains",16 mg/L
same,Minimum inhibitory concentration MIC,[4]; Streptococcus ATCC 19615 (standard strain),8 mg/L
same,MIC,[4]; Streptococcus hemolyticus,8 to 16 mg/L
same,Minimum inhibitory concentration MIC,E. faecium,25 mg/L
same,Minimum inhibitory concentration MIC,E. faecalis,50 mg/L
same,MIC,Enterococcus,6.25 mg/L
same,Minimum inhibitory concentration MIC,Neisseria meningitidis,6.25 mg/L
same,Minimum inhibitory concentration MIC,Neisseria gonorrhoeae,6.25 mg/L
same,Minimum inhibitory concentration MIC,[5],6.25 mg/L and 6.5 mg/L
same,Minimum inhibitory concentration MIC,Salmonella typhimurium,12.5 mg/L
same,Minimum inhibitory concentration MIC,Klebsiella pneumoniae,25 mg/L
same,Minimum inhibitory concentration MIC,K. oxytoca,12.5 mg/L
same,Minimum inhibitory concentration MIC,Citrobacter,12.5 mg/L
same,Minimum inhibitory concentration MIC,E. cloacae,12.5 mg/L
same,Minimum inhibitory concentration MIC,Serratia fonticola,12.5 mg/L
same,Minimum inhibitory concentration MIC,[6],3.13 mg/L
same,Minimum inhibitory concentration MIC,Corynebacterium acnes,3.13 mg/L
same,Minimum inhibitory concentration MIC,"Pseudomonas aeruginosa; P. aeruginosa ATCC27853 (standard strain), test by the third party",8 mg/L
same,Minimum inhibitory concentration MIC,"Pseudomonas aeruginosa; P. aeruginosa IPM-R strain, 8 strains, test by the third party",8 to 16 mg/L
same,Minimum inhibitory concentration MIC,"Pseudomonas aeruginosa; P. aeruginosa IPM-S strain, 4 strains, test by the third party",8 to 16 mg/L
same,Minimum inhibitory concentration MIC,"Pseudomonas aeruginosa; Pseudomonas aeruginosa, strain not specified (Table 8)",8 mg/L
same,Minimum inhibitory concentration MIC,Acinetobacter baumannii,12.5 mg/L
same,Minimum inhibitory concentration MIC,Bordetella pertussis,3.13 mg/L
same,Minimum inhibitory concentration MIC,Haemophilus influenza,3.13 mg/L
same,MIC,Proteusbacillus vulgaris,6.25 mg/L
